# Data: patent US11629171B2, “Beta-hairpin peptidomimetics” (POLYPHOR AG, priority 2017, dated 2023)
# Where a SMILES comes first, the peptide text is derived from it. Bridges are numbered along the chain shown (N, C = ends). Roman numbers before positions name the chains, in order. [ ]: non-standard residue; d: D form. Thr(ol) = C[C@@H](O)[C@H](N)CO; pGlu = O=C1CC[C@@H](C(=O)O)N1; Tle = CC(C)(C)[C@H](N)C(=O)O; Hiv = CC(C)[C@H](O)C(=O)O; dDab = NCC[C@@H](N)C(=O)O; hSer = N[C@@H](CCO)C(=O)O; Orn = NCCC[C@H](N)C(=O)O; Dab = NCC[C@H](N)C(=O)O; Dap = NC[C@H](N)C(=O)O
# Tests used:
# Assay type in all cases: cell-based
# [1] = tested on: Acinetobacter baumannii DSM 30008; details: DSM 30008
# In short: (§1)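 CLSI broth microdilution in cation-adjusted Mueller-Hinton II broth with 0.002% polysorbate 80 (final), inoculum appr. 10^6 CFU/mL, peptides in serial two-fold dilutions. MIC (μg/mL) is the lowest concentration without visible growth after 18-20 h at 35° C.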
# [2] = tested on: Enterobacter cloacae 848840; details: 848840
# In short: as §1
# [3] = tested on: Acinetobacter baumannii 872842; details: 872842
# In short: as §1
# [4] = tested on: Klebsiella pneumoniae SSI #3010; details: SSI #3010
# In short: as §1
# [5] = tested on: Pseudomonas aeruginosa ATCC 27853; details: ATCC 27853
# In short: as §1
# [6] = tested on: Klebsiella pneumoniae 968733; details: 968733
# In short: as §1
# [7] = tested on: Escherichia coli ATCC 25922; details: ATCC 25922
# In short: as §1
# [8] = tested on: Escherichia coli 926415; details: 926415
# In short: as §1
# [9] = tested on: human red blood cells (hRBC); experiment: Hemolysis; details: red cells of human, 1 h, 200
# In short: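 Read-out is supernatant absorbance at 540 nm, normalised to full lysis by 2% Triton X-100 and zero lysis by PBS with 10% water. Peptides (200 μg/mL) were exposed to 20% v/v washed human erythrocytes at 37° C for 1 h under shaking.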
MIC [1],MIC [2],MIC [3],MIC [4],MIC [5],MIC [6],MIC [7],MIC [8],Acinetobacter baumannii DSM 30008 MIC [1],Klebsiella pneumoniae SSI #3010 MIC [4],Pseudomonas aeruginosa ATCC 27853 MIC [5],Escherichia coli ATCC 25922 MIC [7],Compound,Hemolysis at 200 μg/mL [9]
0.0625 µg/mL,0.125 µg/mL,0.0625 µg/mL,0.125 µg/mL,0.125 µg/mL,0.125 µg/mL,0.0625 µg/mL,0.0625 µg/mL,–,–,–,–,CC(C)C[C@@H]1NC(=O)[C@@H](CC(C)C)NC(=O)[C@H](CCN)NC(=O)[C@@H](NC(=O)[C@H](CN)NC(=O)[C@@H](NC(=O)[C@H](CCN)NC(=O)CC[C@@H]2NC(=O)[C@H](CN)NC(=O)[C@H](Cc3ccc(O)cc3)NC(=O)[C@@H](NC(=O)[C@@H](NC(=O)[C@@H]3CCC(=O)N3)C(C)C)CSSC[C@@H](C(=O)N[C@H](CO)[C@@H](C)O)NC(=O)[C@H](C(C)(C)C)NC(=O)[C@H](CO)NC(=O)[C@H](Cc3c[nH]c4ccccc34)NC(=O)[C@H]([C@@H](C)O)NC(=O)[C@@H](CCN)NC2=O)[C@@H](C)O)CCNC(=O)[C@H]([C@@H](C)O)NC(=O)[C@H](CCN)NC(=O)[C@H](CCN)NC1=O [Ex. 232] (I: [pGlu]VCY[Dap]E[dDab]TWS[Tle]C[Thr(ol)] / II: [Dab]T[Dap][Dab][Dab][dL]L[Dab][Dab]T; disulfide I:3-I:12; amide I:6-II:N; lactam II:4-II:C),<1%
0.0625 µg/mL,0.125 µg/mL,0.0625 µg/mL,0.125 µg/mL,0.25 µg/mL,0.25 µg/mL,0.0625 µg/mL,0.0625 µg/mL,–,–,–,–,"CC[C@H](C)[C@H](NC(C)=O)C(=O)N[C@H]1CCCNC(=O)[C@@H]([C@H](C)O)NC(=O)[C@H](C(C)(C)C)NC(=O)[C@H](CO)NC(=O)[C@H](Cc2c[nH]c3ccccc23)NC(=O)[C@H](CCO)NC(=O)[C@@H](CCN)NC(=O)[C@H](CCC(=O)N[C@@H](CCN)C(=O)N[C@H](C(=O)N[C@@H](CN)C(=O)N[C@H]2CCNC(=O)[C@H]([C@@H](C)O)NC(=O)[C@H](CCN)NC(=O)[C@H](CCN)NC(=O)[C@H](CC(C)C)NC(=O)[C@@H](CC(C)C)NC(=O)[C@H](CCN)NC2=O)[C@@H](C)O)NC(=O)[C@H](CN)NC(=O)[C@H](Cc2ccc(O)cc2)NC1=O [Ex. 32] (I: Ac-I[Orn]Y[Dap]E[dDab][hSer]WS[Tle][dT] / II: [Dab]T[Dap][Dab][Dab][dL]L[Dab][Dab]T; lactam I:2-I:C, II:4-II:C; amide I:5-II:N)",<1%
0.125 µg/mL,0.25 µg/mL,0.25 µg/mL,0.25 µg/mL,0.25 µg/mL,0.25 µg/mL,0.125 µg/mL,1 µg/mL,–,–,–,–,"CC(=O)N[C@H](C(=O)N[C@H]1CCNC(=O)[C@@H]([C@H](C)O)NC(=O)[C@H](C(C)(C)C)NC(=O)[C@H](CO)NC(=O)[C@H](Cc2c[nH]c3ccccc23)NC(=O)[C@H](CCO)NC(=O)[C@@H](CCN)NC(=O)[C@H](CCC(=O)N[C@@H](CCN)C(=O)N[C@H](C(=O)N[C@@H](CN)C(=O)N[C@H]2CCNC(=O)[C@H]([C@@H](C)O)NC(=O)[C@H](CCN)NC(=O)[C@H](CCN)NC(=O)[C@H](CC(C)C)NC(=O)[C@@H](CC(C)C)NC(=O)[C@H](CCN)NC2=O)[C@@H](C)O)NC(=O)[C@H](CN)NC(=O)[C@H](Cc2ccc(O)cc2)NC1=O)C(C)C [Ex. 35] (I: Ac-V[Dab]Y[Dap]E[dDab][hSer]WS[Tle][dT] / II: [Dab]T[Dap][Dab][Dab][dL]L[Dab][Dab]T; lactam I:2-I:C, II:4-II:C; amide I:5-II:N)",<1%
–,0.0625 µg/mL,0.03125 µg/mL,–,–,0.0625 µg/mL,–,0.0625 µg/mL,0.007813 µg/mL,0.03125 µg/mL,0.0625 µg/mL,0.01562 µg/mL,CC(=O)N[C@H](C(=O)N[C@H]1CSSC[C@@H](C(=O)N[C@@H](C)C(=O)N[C@@H](CO)C(N)=O)NC(=O)[C@H](C(C)C)NC(=O)[C@H](CO)NC(=O)[C@H](Cc2c[nH]c3ccccc23)NC(=O)[C@H](CO)NC(=O)[C@@H](CCN)NC(=O)[C@H](CCC(=O)N[C@@H](CCN)C(=O)N[C@H](C(=O)N[C@@H](CN)C(=O)N[C@H]2CCNC(=O)[C@H]([C@@H](C)O)NC(=O)[C@H](CCN)NC(=O)[C@H](CCN)NC(=O)[C@H](CC(C)C)NC(=O)[C@@H](CC(C)C)NC(=O)[C@H](CCN)NC2=O)[C@@H](C)O)NC(=O)[C@H](CCN)NC(=O)[C@H](Cc2ccc(O)cc2)NC1=O)C(C)C [Ex. 367] (I: Ac-VCY[Dab]E[dDab]SWSVCAS-NH2 / II: [Dab]T[Dap][Dab][Dab][dL]L[Dab][Dab]T; disulfide I:2-I:11; amide I:5-II:N; lactam II:4-II:C),<1%
0.25 µg/mL,2 µg/mL,0.5 µg/mL,0.25 µg/mL,0.25 µg/mL,2 µg/mL,0.125 µg/mL,2 µg/mL,–,–,–,–,CC(C)C[C@@H]1NC(=O)[C@@H](CC(C)C)NC(=O)[C@H](CCN)NC(=O)[C@@H](NC(=O)[C@H](CN)NC(=O)[C@@H](NC(=O)[C@H](CCN)NC(=O)CC[C@H]2NC(=O)[C@H](CCCN)NC(=O)[C@@H](NC(=O)[C@H](Cc3ccc(O)cc3)NC(=O)[C@@H](NC(=O)[C@@H](O)C(C)C)[C@@H](C)O)CSSC[C@@H](C(=O)N[C@H](C(=O)N[C@@H](C)C(=O)N[C@H](CO)[C@@H](C)O)C(C)(C)C)NC(=O)[C@H](Cc3c[nH]c4ccccc34)NC(=O)[C@H]([C@@H](C)O)NC2=O)[C@@H](C)O)CCNC(=O)[C@H]([C@@H](C)O)NC(=O)[C@H](CCN)NC(=O)[C@H](CCN)NC1=O [Ex. 210] (I: H-[Hiv]TYC[Orn][dE]TWC[Tle]A[Thr(ol)] / II: [Dab]T[Dap][Dab][Dab][dL]L[Dab][Dab]T; disulfide I:4-I:9; amide I:6-II:N; lactam II:4-II:C),<1%
0.0625 µg/mL,0.125 µg/mL,0.0625 µg/mL,0.0625 µg/mL,0.0625 µg/mL,0.125 µg/mL,0.03125 µg/mL,0.0625 µg/mL,–,–,–,–,CC(=O)N[C@H](C(=O)N[C@H]1CSSC[C@@H](C(=O)N[C@H](C(N)=O)[C@@H](C)O)NC(=O)[C@H](C(C)C)NC(=O)[C@H](CO)NC(=O)[C@H](Cc2c[nH]c3ccccc23)NC(=O)[C@H](CCN)NC(=O)[C@@H](CCN)NC(=O)[C@H](CCC(=O)N[C@@H](CCN)C(=O)N[C@H](C(=O)N[C@@H](CN)C(=O)N[C@H]2CCNC(=O)[C@H]([C@@H](C)O)NC(=O)[C@H](CCN)NC(=O)[C@H](CCN)NC(=O)[C@H](CC(C)C)NC(=O)[C@@H](CC(C)C)NC(=O)[C@H](CCN)NC2=O)[C@@H](C)O)NC(=O)[C@H](CO)NC(=O)[C@H](Cc2ccc(O)cc2)NC1=O)C(C)C [Ex. 267] (I: Ac-VCYSE[dDab][Dab]WSVCT-NH2 / II: [Dab]T[Dap][Dab][Dab][dL]L[Dab][Dab]T; disulfide I:2-I:11; amide I:5-II:N; lactam II:4-II:C),<1%
0.03125 µg/mL,0.25 µg/mL,0.125 µg/mL,0.0625 µg/mL,0.125 µg/mL,0.5 µg/mL,0.0625 µg/mL,0.5 µg/mL,–,–,–,–,CC(=O)N[C@H](C(=O)N[C@H]1CSSC[C@@H](C(=O)N[C@@H](CO)C(N)=O)NC(=O)[C@H](C(C)C)NC(=O)[C@H](CCC(=O)O)NC(=O)[C@H](Cc2c[nH]c3ccccc23)NC(=O)[C@H](CCN)NC(=O)[C@@H](CCN)NC(=O)[C@H](CCC(=O)N[C@@H](CCN)C(=O)N[C@H](C(=O)N[C@@H](CN)C(=O)N[C@H]2CCNC(=O)[C@H]([C@@H](C)O)NC(=O)[C@H](CCN)NC(=O)[C@H](CCN)NC(=O)[C@H](CC(C)C)NC(=O)[C@@H](CC(C)C)NC(=O)[C@H](CCN)NC2=O)[C@@H](C)O)NC(=O)[C@H](CO)NC(=O)[C@H](Cc2ccc(O)cc2)NC1=O)C(C)C [Ex. 268] (I: Ac-VCYSE[dDab][Dab]WEVCS-NH2 / II: [Dab]T[Dap][Dab][Dab][dL]L[Dab][Dab]T; disulfide I:2-I:11; amide I:5-II:N; lactam II:4-II:C),<1%
